According to ChEMBL document CHEMBL4196010, “New hydrazides derivatives of isoniazid against Mycobacterium tuberculosis: Higher potency and lower hepatocytotoxicity” (Eur J Med Chem, 2018):
Converted amounts (≈) assume the structure as drawn.

Experiments:
[1] = system: Mycobacterium tuberculosis; test: Antitubercular activity against Mycobacterium tuberculosis H37Rv ATCC 27294 after 5 days by microplate alamar blue assay; assay type: functional; settings: H37Rv ATCC 27294, 120 h
[2] = system: Mycobacterium tuberculosis; test: Potency index, ratio of ethambutol MIC to compound MIC for antitubercular activity against Mycobacterium tuberculosis H37Rv ATCC 27294; assay type: functional
[3] = system: Mycobacterium tuberculosis; test: Potency index, ratio of pyrazinamide MIC to compound MIC for antitubercular activity against Mycobacterium tuberculosis H37Rv ATCC 27294; assay type: functional
J774.A1 [4] = test: Cytotoxicity against mouse J774A.1 cells assessed as decrease in cell viability at 1 nM after 20 hrs by resazurin dye-based fluorimetric method; settings: j774.a1, 20 h, 0.001 µM
J774.A1 [5] = test: Cytotoxicity against mouse J774A.1 cells assessed as decrease in cell viability at 10 nM after 20 hrs by resazurin dye-based fluorimetric method; settings: j774.a1, 20 h, 0.01 µM
J774.A1 [6] = test: Cytotoxicity against mouse J774A.1 cells assessed as decrease in cell viability at 100 nM after 20 hrs by resazurin dye-based fluorimetric method; settings: j774.a1, 20 h, 0.1 µM
J774.A1 [7] = test: Cytotoxicity against mouse J774A.1 cells assessed as decrease in cell viability at 1 uM after 20 hrs by resazurin dye-based fluorimetric method; settings: j774.a1, 20 h
J774.A1 [8] = test: Cytotoxicity against mouse J774A.1 cells assessed as decrease in cell viability at 10 uM after 20 hrs by resazurin dye-based fluorimetric method; settings: j774.a1, 20 h
J774.A1 [9] = test: Cytotoxicity against mouse J774A.1 cells assessed as decrease in cell viability at 100 uM after 20 hrs by resazurin dye-based fluorimetric method; settings: j774.a1, 20 h
[10] = Cytotoxicity against human HepG2 cells after 3 hrs by WST-1 assay; assay type: cell-based; settings: read-out: LC50
[11] = Cytotoxicity against human HepG2 cells after 24 hrs by WST-1 assay; assay type: cell-based; settings: read-out: LC50
[12] = Selectivity index, ratio of LC50 for human HepG2 cells to MIC for Mycobacterium tuberculosis H37Rv ATCC 27294; assay type: toxicity; settings: read-out: Selectivity Index
Salmonella typhimurium [13] = test: Genotoxicity in Salmonella typhimurium TA98 assessed as increase in revertant colonies at 0.5 uM preincubated for 20 mins followed by addition of top agar and minimal agar and measured after 72 hrs in presence of S9 metabolic activation system by Ames test relative to control; assay type: toxicity, organism-based; settings: salmonella enterica subsp. enterica serovar typhimurium
Salmonella typhimurium [14] = test: Genotoxicity in Salmonella typhimurium TA98 assessed as increase in revertant colonies at 0.5 uM preincubated for 20 mins followed by addition of top agar and minimal agar and measured after 72 hrs in absence of S9 metabolic activation system by Ames test relative to control; assay type: toxicity, organism-based; settings: salmonella enterica subsp. enterica serovar typhimurium
Salmonella typhimurium [15] = test: Genotoxicity in Salmonella typhimurium TA98 assessed as increase in revertant colonies at 5 uM preincubated for 20 mins followed by addition of top agar and minimal agar and measured after 72 hrs in absence of S9 metabolic activation system by Ames test relative to control; assay type: toxicity, organism-based; settings: salmonella enterica subsp. enterica serovar typhimurium
Salmonella typhimurium [16] = test: Genotoxicity in Salmonella typhimurium TA98 assessed as increase in revertant colonies at 50 uM preincubated for 20 mins followed by addition of top agar and minimal agar and measured after 72 hrs in absence of S9 metabolic activation system by Ames test relative to control; assay type: toxicity, organism-based; settings: salmonella enterica subsp. enterica serovar typhimurium
Salmonella typhimurium [17] = test: Genotoxicity in Salmonella typhimurium TA98 assessed as increase in revertant colonies at 500 uM preincubated for 20 mins followed by addition of top agar and minimal agar and measured after 72 hrs in absence of S9 metabolic activation system by Ames test relative to control; assay type: toxicity, organism-based; settings: salmonella enterica subsp. enterica serovar typhimurium
Salmonella typhimurium [18] = test: Genotoxicity in Salmonella typhimurium TA98 assessed as increase in revertant colonies at 5000 uM preincubated for 20 mins followed by addition of top agar and minimal agar and measured after 72 hrs in absence of S9 metabolic activation system by Ames test relative to control; assay type: toxicity, organism-based; settings: salmonella enterica subsp. enterica serovar typhimurium
Salmonella typhimurium [19] = test: Genotoxicity in Salmonella typhimurium TA100 assessed as increase in revertant colonies at 0.5 uM preincubated for 20 mins followed by addition of top agar and minimal agar and measured after 72 hrs in absence of S9 metabolic activation system by Ames test relative to control; assay type: toxicity, organism-based; settings: salmonella enterica subsp. enterica serovar typhimurium
Salmonella typhimurium [20] = test: Genotoxicity in Salmonella typhimurium TA100 assessed as increase in revertant colonies at 5 uM preincubated for 20 mins followed by addition of top agar and minimal agar and measured after 72 hrs in absence of S9 metabolic activation system by Ames test relative to control; assay type: toxicity, organism-based; settings: salmonella enterica subsp. enterica serovar typhimurium
Salmonella typhimurium [21] = test: Genotoxicity in Salmonella typhimurium TA100 assessed as increase in revertant colonies at 50 uM preincubated for 20 mins followed by addition of top agar and minimal agar and measured after 72 hrs in absence of S9 metabolic activation system by Ames test relative to control; assay type: toxicity, organism-based; settings: salmonella enterica subsp. enterica serovar typhimurium
Salmonella typhimurium [22] = test: Genotoxicity in Salmonella typhimurium TA100 assessed as increase in revertant colonies at 500 uM preincubated for 20 mins followed by addition of top agar and minimal agar and measured after 72 hrs in absence of S9 metabolic activation system by Ames test relative to control; assay type: toxicity, organism-based; settings: salmonella enterica subsp. enterica serovar typhimurium
Salmonella typhimurium [23] = test: Genotoxicity in Salmonella typhimurium TA100 assessed as increase in revertant colonies at 5000 uM preincubated for 20 mins followed by addition of top agar and minimal agar and measured after 72 hrs in absence of S9 metabolic activation system by Ames test relative to control; assay type: toxicity, organism-based; settings: salmonella enterica subsp. enterica serovar typhimurium
Salmonella typhimurium [24] = test: Genotoxicity in Salmonella typhimurium TA98 assessed as increase in revertant colonies at 5 uM preincubated for 20 mins followed by addition of top agar and minimal agar and measured after 72 hrs in presence of S9 metabolic activation system by Ames test relative to control; assay type: toxicity, organism-based; settings: salmonella enterica subsp. enterica serovar typhimurium
Salmonella typhimurium [25] = test: Genotoxicity in Salmonella typhimurium TA98 assessed as increase in revertant colonies at 50 uM preincubated for 20 mins followed by addition of top agar and minimal agar and measured after 72 hrs in presence of S9 metabolic activation system by Ames test relative to control; assay type: toxicity, organism-based; settings: salmonella enterica subsp. enterica serovar typhimurium
Salmonella typhimurium [26] = test: Genotoxicity in Salmonella typhimurium TA98 assessed as increase in revertant colonies at 500 uM preincubated for 20 mins followed by addition of top agar and minimal agar and measured after 72 hrs in presence of S9 metabolic activation system by Ames test relative to control; assay type: toxicity, organism-based; settings: salmonella enterica subsp. enterica serovar typhimurium
Salmonella typhimurium [27] = test: Genotoxicity in Salmonella typhimurium TA98 assessed as increase in revertant colonies at 5000 uM preincubated for 20 mins followed by addition of top agar and minimal agar and measured after 72 hrs in presence of S9 metabolic activation system by Ames test relative to control; assay type: toxicity, organism-based; settings: salmonella enterica subsp. enterica serovar typhimurium
Salmonella typhimurium [28] = test: Genotoxicity in Salmonella typhimurium TA100 assessed as increase in revertant colonies at 0.5 uM preincubated for 20 mins followed by addition of top agar and minimal agar and measured after 72 hrs in presence of S9 metabolic activation system by Ames test relative to control; assay type: toxicity, organism-based; settings: salmonella enterica subsp. enterica serovar typhimurium
Salmonella typhimurium [29] = test: Genotoxicity in Salmonella typhimurium TA100 assessed as increase in revertant colonies at 5 uM preincubated for 20 mins followed by addition of top agar and minimal agar and measured after 72 hrs in presence of S9 metabolic activation system by Ames test relative to control; assay type: toxicity, organism-based; settings: salmonella enterica subsp. enterica serovar typhimurium
Salmonella typhimurium [30] = test: Genotoxicity in Salmonella typhimurium TA100 assessed as increase in revertant colonies at 50 uM preincubated for 20 mins followed by addition of top agar and minimal agar and measured after 72 hrs in presence of S9 metabolic activation system by Ames test relative to control; assay type: toxicity, organism-based; settings: salmonella enterica subsp. enterica serovar typhimurium

O=C(CCl)Nc1ccccc1C(=O)C(=O)NNC(=O)c1ccncc1
MIC [1]: 0.43 µM (≈ 0.155 µg/mL)
Ratio [2]: 30
Ratio [3]: 1800
Activity (J774.A1 [4]): 99%
Activity (J774.A1 [5]): 98.5%
Activity (J774.A1 [6]): 97.9%
Activity (J774.A1 [7]): 96.5%
Activity (J774.A1 [8]): 98.8%
Activity (J774.A1 [9]): 63.3%
CC50 at 3 h [10]: > 200 µM
CC50 at 24 h [11]: 110 µM
selectivity ratio [12]: 256

O=C(NNC(=O)c1ccncc1)C(=O)c1ccccc1NC(=O)c1ccccc1
MIC [1]: 8.04 µM (≈ 3.12 µg/mL)
Activity (J774.A1 [4]): 100%
Activity (J774.A1 [5]): 99.4%
Activity (J774.A1 [6]): 99.8%
Activity (J774.A1 [7]): 98.2%
Activity (J774.A1 [8]): 98%
Activity (J774.A1 [9]): 86.5%
CC50 at 3 h [10]: > 200 µM
CC50 at 24 h [11]: > 200 µM
selectivity ratio [12]: > 25

NC(=O)c1cnccn1 [PYRAZINAMIDE]
MIC [1]: 813 µM (≈ 100 µg/mL)

NNC(=O)c1ccncc1 [ISONIAZID]
fold change (FC) (Salmonella typhimurium [13]): 1.3
MIC [1]: 0.88 µM (≈ 0.121 µg/mL)
Activity (J774.A1 [4]): 99.5%
Activity (J774.A1 [5]): 98.2%
Activity (J774.A1 [6]): 97.3%
Activity (J774.A1 [7]): 98.7%
Activity (J774.A1 [8]): 98.5%
Activity (J774.A1 [9]): 90.3%
CC50 at 3 h [10]: > 200 µM
CC50 at 24 h [11]: 105 µM
selectivity ratio [12]: 119
fold change (FC) (Salmonella typhimurium [14]): 1.5
fold change (FC) (Salmonella typhimurium [15]): 1.6
fold change (FC) (Salmonella typhimurium [16]): 2
fold change (FC) (Salmonella typhimurium [17]): 3.7
fold change (FC) (Salmonella typhimurium [18]): 4
fold change (FC) (Salmonella typhimurium [19]): 1.1
fold change (FC) (Salmonella typhimurium [20]): 1.2
fold change (FC) (Salmonella typhimurium [21]): 1.3
fold change (FC) (Salmonella typhimurium [22]): 1.6
fold change (FC) (Salmonella typhimurium [23]): 1.9
fold change (FC) (Salmonella typhimurium [24]): 1.3
fold change (FC) (Salmonella typhimurium [25]): 1.5
fold change (FC) (Salmonella typhimurium [26]): 1.6
Activity (Salmonella typhimurium [27]): Toxic
fold change (FC) (Salmonella typhimurium [28]): 1.4
fold change (FC) (Salmonella typhimurium [29]): 1.4
Activity (Salmonella typhimurium [30]): Toxic

CC(=O)Nc1ccccc1C(F)(F)C(=O)NNC(=N)N
MIC [1]: > 351 µM

CC(=O)Nc1ccc(F)cc1C(F)(F)C(=O)NNC(=O)c1ccncc1
MIC [1]: 17.1 µM (≈ 6.26 µg/mL)

CO[C@H]1/C=C/O[C@@]2(C)Oc3c(C)c(O)c4c(O)c(c(/C=N/N5CCN(C)CC5)c(O)c4c3C2=O)NC(=O)/C(C)=C\C=C\[C@H](C)[C@H](O)[C@@H](C)[C@@H](O)[C@@H](C)[C@H](OC(C)=O)[C@@H]1C [RIFAMPIN]
MIC [1]: 1.22 µM (≈ 1 µg/mL)

CC(=O)Nc1ccc(C)cc1C(=O)C(=O)NNC(=O)c1ccncc1
fold change (FC) (Salmonella typhimurium [13]): 1
MIC [1]: 0.45 µM (≈ 0.153 µg/mL)
Ratio [2]: 30
Ratio [3]: 1800
Activity (J774.A1 [4]): 100%
Activity (J774.A1 [5]): 100%
Activity (J774.A1 [6]): 99.5%
Activity (J774.A1 [7]): 99.2%
Activity (J774.A1 [8]): 98.2%
Activity (J774.A1 [9]): 94%
CC50 at 3 h [10]: > 200 µM
CC50 at 24 h [11]: > 200 µM
selectivity ratio [12]: > 444
fold change (FC) (Salmonella typhimurium [14]): 1.2
fold change (FC) (Salmonella typhimurium [15]): 1.6
fold change (FC) (Salmonella typhimurium [16]): 1.8
fold change (FC) (Salmonella typhimurium [17]): 1.9
fold change (FC) (Salmonella typhimurium [18]): 3.4
fold change (FC) (Salmonella typhimurium [19]): 1.2
fold change (FC) (Salmonella typhimurium [20]): 1.2
fold change (FC) (Salmonella typhimurium [21]): 1.4
fold change (FC) (Salmonella typhimurium [22]): 1.4
fold change (FC) (Salmonella typhimurium [23]): 1.6
fold change (FC) (Salmonella typhimurium [24]): 1.7
fold change (FC) (Salmonella typhimurium [25]): 1.8
fold change (FC) (Salmonella typhimurium [26]): 3.4
fold change (FC) (Salmonella typhimurium [27]): 4
fold change (FC) (Salmonella typhimurium [28]): 1.1
fold change (FC) (Salmonella typhimurium [29]): 1.5
Activity (Salmonella typhimurium [30]): Toxic

CC(=O)Nc1ccccc1C(F)(F)C(=O)NNC(=O)c1ccncc1
MIC [1]: 3.59 µM (≈ 1.25 µg/mL)

CC(=O)Nc1ccc(C)cc1C(F)(F)C(=O)NN
MIC [1]: > 412 µM

CC[C@@H](CO)NCCN[C@@H](CC)CO [ETHAMBUTOL]
MIC [1]: 15.9 µM (≈ 3.25 µg/mL)
